Experimental data published in US8884013B2, “Polymorphs of Dasatinib, preparation methods and pharmaceutical compositions thereof” (Nan Jing Cavendish Bio-Engineering Technology Co., Ltd., priority 2010, dated 2014).
“Also recorded” adds a separate entry of the source.

What was measured:
Type in all cases: physicochemical
[1] = Loss and regain of crystal water (sealed with strong dehydrating agent, then air)
[2] = Stability of polymorph in the formulations (XRPD and relative substances after formulation); settings: for Change of relative substances of bulk drug in the formulation (in words): after formulation into capsules or tablets; for Change of crystalline form after being formulated: capsules or tablets, XRPD
Description: Stability of Polymorph in the Formulations
The XRPD patterns of capsules and tablets respectively prepared in the Example 3 and Example 4 have been tested, and compared with XRPD characteristic peaks of Polymorph I of Dasatinib prepared by the Method A in the Example 1 in the present invention, as listed in the following table:
In addition, The relative substances of capsules and tablets respectively prepared in the Example 3 and Example 4 have been tested, and compared with those of Polymorph I of Dasatinib prepared by the Method A in the Example 1 in the present invention, as listed in the following table: […]

[3] = Photostability test (4500 ± 500 Lx); settings: for Appearance / Content / Related substance: 4500 ± 500lx
Description: (§1) The conditions and methods of related substance test involved in this invention was in accordance with HPLC (Appendix VD of Chinese Pharmacopoeia, Vol. II, (2005)).
(§2) Chromatographic conditions and system applicability:
(§3) octadecylsilane bonded silica as the filler; 0.05 mol/L of potassium dihydrogen phosphate (adjusted to pH 2.5 by phosphoric acid)-methanol (45:55) as the mobile phase; detection wavelength was 230 nm; the number of theoretical plates should be not less than 2000, calculated according to the peak area of Dasatinib. The resolution of the peak of Dasatinib from the peaks of adjacent impurities should meet requirements.
(§4) Test Method: the sample was weight and dissolved into mobile phase to be the solution containing 0.5 mg per mL, and 20 μL of this solution was taken and injected into liquid chromatography. Chromatogram was recorded until it is 6 times as the retention time of the main peak.
The Polymorph I of Dasatinib monohydrate was distributed homogeneously in open petri dish with the thickness of the raw material not more than 5 mm, and the distance was adjusted to make illumination intensity at 4500±500 Lx. Sample was tested at the 5th and 10th day respectively and the results were contrasted with that of the Day 0. Results were listed in Tab. 2.
The Polymorph II of Dasatinib was distributed homogeneously in open petri dish with the thickness of the raw material not more than 5 mm, and the distance was adjusted to make illumination intensity at 4500±500 Lx. Sample was tested at the 5th and 10th day respectively and the results were contrasted with that of the Day 0. Results were listed in Tab. 7.

[4] = Accelerated test (40° C. and 75% relative humidity); settings: for Appearance / Content / Related substances: 40° C., 75% relative humidity; for Physical and chemical characteristic in accelerated test (in words): summary of six-month test
Description: as §1, §2, §3, §4
The raw material of Polymorph I of Dasatinib was hermetically packed in plastic bags of polyethylene film and put in thermostatic and humidostatic incubator at 40±2° C. and 75±5% relative humidity for six months. Sample was tested at the end of the 1st, 2nd, 3rd and 6th month respectively and the results were contrasted with that of the zeroth month. Results were listed in Tab. 5.
The raw material of Polymorph II of Dasatinib was hermetically packed in plastic bags of polyethylene film and put in thermostatic and humidostatic incubator at 40±2° C. and 75±5% relative humidity for six months. Sample was tested at the end of the 1st, 2nd, 3rd and 6th month respectively and the results were contrasted with that of the zeroth month. Results were listed in Tab. 10.

[5] = Observation test of long-term sample storage

Row | Structure (SMILES) | Change of relative substances of bulk drug in the formulation (in words) [2] | Change of crystalline form after being formulated [2] | Content ([3]; day 0) [%] | Related substance ([3]; day 0) [%] | Content ([3]; day 5) [%] | Related substance ([3]; day 5) [%] | Content ([3]; day 10) [%] | Related substance ([3]; day 10) [%] | Change of content in photostability test (in words) ([3]; summary of 10-day test) | Change of related substances in photostability test (in words) ([3]; summary of 10-day test) | Appearance ([4]; month 0) | Content ([4]; month 0) [%] | Related substances ([4]; month 0) [%] | Appearance ([4]; month 1) | Content ([4]; month 1) [%] | Related substances ([4]; month 1) [%] | Appearance ([4]; month 2) | Content ([4]; month 2) [%] | Related substances ([4]; month 2) [%] | Appearance ([4]; month 3) | also measured
1 | Cc1nc(Nc2ncc(C(=O)Nc3c(C)cccc3Cl)s2)cc(N2CCN(CCO)CC2)n1 [Polymorph I, N-(2-chloro-6-methylphenyl)-2-[[6-[4-(2-hydroxyethyl)-1-piperazinyl]-2-methyl-4-pyrimidyl]amino]-5-thiazolformamide] | didn't increase; also recorded: no significantly changes | no substantially change; also recorded: substantially no change | 99.7 | 0.07 | 99.6 | 0.21 | 99.4 | 0.34 | of some drop | increased slightly | white powder | 99.7 | 0.07 | white powder | 99.6 | 0.07 | white powder | 99.6 | 0.08 | white powder | Behaviour in a sealed surrounding with strong dehydrating agent ([1]; allochroic silicagel, phosphorus pentoxide etc.): lose crystal water (partly to all) step by step; Behaviour of the polymorph losing part crystal moisture in air environment ([1]; put in air environment): return to the Polymorph I with one crystal water step by step; Relative substances ([2]; bulk drug vs capsules and tablets of Examples 3 and 4): 0.07%; Appearance ([3]; day 0): white powder; Appearance ([3]; day 5): white powder; Appearance ([3]; day 10): white powder; Content ([4]; month 3): 99.6%; Related substances ([4]; month 3): 0.08%; Appearance ([4]; month 6): white powder; Content ([4]; month 6): 99.5%; Related substances ([4]; month 6): 0.09%; Physical and chemical characteristic in accelerated test (in words) [4]: relatively stable; Change of content (in words) [5]: decreased slightly; Change of related substances (in words) [5]: increased slightly; Crystal transformation [5]: not found
2 | Cc1nc(Nc2ncc(C(=O)Nc3c(C)cccc3Cl)s2)cc(N2CCN(CCO)CC2)n1 [Polymorph II, N-(2-chloro-6-methylphenyl)-2-[[6-[4-(2-hydroxyethyl)-1-piperazinyl]-2-methyl-4-pyrimidyl]amino]-5-thiazolformamide] | didn't increase | no substantially change | 99.8 | 0.06 | 99.6 | 0.22 | 99.3 | 0.36 | of some drop | increased slightly | white powder | 99.8 | 0.06 | white powder | 99.7 | 0.07 | white powder | 99.8 | 0.08 | white powder | Change of appearance in photostability test (in words) ([3]; summary of 10-day test): no obvious change; Content ([4]; month 3): 99.6%; Related substances ([4]; month 3): 0.07%; Appearance ([4]; month 6): white powder; Content ([4]; month 6): 99.6%; Related substances ([4]; month 6): 0.08%; Physical and chemical characteristic in accelerated test (in words) [4]: of relative stability
